Results: article PMC10182041, “A first-in-class inhibitor of Hsp110 molecular chaperones of pathogenic fungi” (Nature Communications, 2023)

Legend:
Sse1 = target: T1, Sse1 (Saccharomyces cerevisiae, UniProt P32589); assay: reduction of ATP-FAM binding to purified Sse1, fluorescence polarization; assay type: biochemical
T1 sequence (P32589 1-693): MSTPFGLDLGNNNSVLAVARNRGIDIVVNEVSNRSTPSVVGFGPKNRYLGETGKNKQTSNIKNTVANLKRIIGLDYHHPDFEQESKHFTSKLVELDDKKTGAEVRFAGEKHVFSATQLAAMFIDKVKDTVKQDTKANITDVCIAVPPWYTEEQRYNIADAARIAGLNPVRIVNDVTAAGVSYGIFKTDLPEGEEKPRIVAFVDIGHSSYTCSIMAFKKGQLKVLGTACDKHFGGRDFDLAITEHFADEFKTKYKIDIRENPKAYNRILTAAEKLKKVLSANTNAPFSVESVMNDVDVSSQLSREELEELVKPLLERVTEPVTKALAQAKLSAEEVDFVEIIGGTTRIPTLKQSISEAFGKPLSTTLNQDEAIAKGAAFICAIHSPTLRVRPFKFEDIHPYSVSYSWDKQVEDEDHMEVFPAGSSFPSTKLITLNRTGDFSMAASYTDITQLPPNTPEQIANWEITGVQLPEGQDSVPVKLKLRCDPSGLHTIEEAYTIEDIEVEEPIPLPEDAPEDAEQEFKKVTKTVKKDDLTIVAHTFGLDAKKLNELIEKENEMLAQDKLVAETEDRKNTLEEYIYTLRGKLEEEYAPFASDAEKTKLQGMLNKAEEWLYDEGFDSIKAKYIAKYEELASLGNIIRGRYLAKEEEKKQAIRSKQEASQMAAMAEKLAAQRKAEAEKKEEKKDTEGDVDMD

Msi3 [1] = target: Msi3 (Candida albicans, UniProt Q96VB9); assay: IC50 from the luciferase holdase assay; assay type: biochemical
Msi3 (Candida albicans, UniProt Q96VB9), sequence (Q96VB9 whole entry): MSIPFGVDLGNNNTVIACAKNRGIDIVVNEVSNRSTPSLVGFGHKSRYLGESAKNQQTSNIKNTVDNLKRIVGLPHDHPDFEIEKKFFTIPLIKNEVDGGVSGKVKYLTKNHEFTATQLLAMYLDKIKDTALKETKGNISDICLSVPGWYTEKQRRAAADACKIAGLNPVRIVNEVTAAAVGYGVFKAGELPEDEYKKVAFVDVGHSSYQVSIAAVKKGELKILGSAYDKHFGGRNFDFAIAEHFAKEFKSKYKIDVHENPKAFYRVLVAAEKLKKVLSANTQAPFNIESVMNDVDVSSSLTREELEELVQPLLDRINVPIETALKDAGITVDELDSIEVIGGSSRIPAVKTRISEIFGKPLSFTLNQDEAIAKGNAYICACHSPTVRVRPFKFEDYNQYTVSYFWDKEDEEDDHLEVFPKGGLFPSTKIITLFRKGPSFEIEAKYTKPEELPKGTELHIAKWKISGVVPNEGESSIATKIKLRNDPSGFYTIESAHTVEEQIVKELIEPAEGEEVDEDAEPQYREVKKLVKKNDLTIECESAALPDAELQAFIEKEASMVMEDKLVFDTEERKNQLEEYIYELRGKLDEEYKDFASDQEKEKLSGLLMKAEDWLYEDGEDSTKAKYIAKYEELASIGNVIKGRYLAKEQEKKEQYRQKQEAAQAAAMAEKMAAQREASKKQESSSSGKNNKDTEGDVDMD

Msi3 [2] = target: Msi3 (Candida albicans, UniProt Q96VB9, I164D); assay: luciferase aggregation (holdase) assay at OD320 with purified mutant; assay type: biochemical
Msi3 (Candida albicans, UniProt Q96VB9, I164D), sequence (Q96VB9 whole entry I164D): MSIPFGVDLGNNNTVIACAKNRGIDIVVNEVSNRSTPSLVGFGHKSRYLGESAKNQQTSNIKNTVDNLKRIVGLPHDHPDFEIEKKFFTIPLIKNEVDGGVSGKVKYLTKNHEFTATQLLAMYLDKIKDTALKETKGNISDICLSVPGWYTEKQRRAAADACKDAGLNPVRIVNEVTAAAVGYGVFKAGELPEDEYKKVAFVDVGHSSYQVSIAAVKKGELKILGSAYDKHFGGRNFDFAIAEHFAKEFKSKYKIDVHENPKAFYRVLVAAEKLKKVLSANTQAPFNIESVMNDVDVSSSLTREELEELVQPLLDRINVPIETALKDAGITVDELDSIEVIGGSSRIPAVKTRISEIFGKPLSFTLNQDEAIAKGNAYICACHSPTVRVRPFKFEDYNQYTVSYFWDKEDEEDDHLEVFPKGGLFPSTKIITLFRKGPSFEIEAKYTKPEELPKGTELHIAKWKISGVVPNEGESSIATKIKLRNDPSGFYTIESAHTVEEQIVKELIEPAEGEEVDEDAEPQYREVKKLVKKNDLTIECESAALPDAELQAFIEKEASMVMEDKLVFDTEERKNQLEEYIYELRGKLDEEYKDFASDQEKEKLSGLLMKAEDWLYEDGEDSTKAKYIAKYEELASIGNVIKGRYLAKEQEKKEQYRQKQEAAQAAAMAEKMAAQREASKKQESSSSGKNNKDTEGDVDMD

Ssa1 = Ssa1 (Saccharomyces cerevisiae, UniProt P10591); assay: displacement of pre-bound ATP-FAM, fluorescence polarization; assay type: binding
Ssa1, sequence (P10591 2-642): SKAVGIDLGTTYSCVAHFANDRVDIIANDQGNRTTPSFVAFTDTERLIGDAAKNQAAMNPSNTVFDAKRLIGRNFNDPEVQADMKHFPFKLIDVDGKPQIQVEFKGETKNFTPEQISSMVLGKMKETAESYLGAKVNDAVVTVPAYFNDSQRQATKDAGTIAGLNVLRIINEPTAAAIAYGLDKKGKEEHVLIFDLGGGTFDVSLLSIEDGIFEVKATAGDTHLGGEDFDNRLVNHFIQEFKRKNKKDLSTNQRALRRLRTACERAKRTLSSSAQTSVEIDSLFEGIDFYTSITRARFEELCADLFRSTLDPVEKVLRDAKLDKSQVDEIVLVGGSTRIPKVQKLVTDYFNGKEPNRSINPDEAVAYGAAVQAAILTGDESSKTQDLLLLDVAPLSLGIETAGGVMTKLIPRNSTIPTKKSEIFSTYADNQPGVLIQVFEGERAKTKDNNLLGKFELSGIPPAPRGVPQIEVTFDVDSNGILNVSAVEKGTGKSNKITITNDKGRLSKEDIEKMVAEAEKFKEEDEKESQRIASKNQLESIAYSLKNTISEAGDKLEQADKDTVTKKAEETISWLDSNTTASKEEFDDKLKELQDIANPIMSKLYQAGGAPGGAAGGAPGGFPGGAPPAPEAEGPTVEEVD

| SMILES | reduction of ATP-FAM binding to purified Sse1, fluorescence polarization (Sse1) | IC50 (Msi3 [1]) [µM] | luciferase aggregation (holdase) assay at OD320 with purified mutant (Msi3 [2]) | displacement of pre-bound ATP-FAM, fluorescence polarization (Ssa1) |
| --- | --- | --- | --- | --- |
| Cc1cccc(COc2nc3c(cc2-c2nc(N)cc(N)n2)c(C)nn3-c2ccccc2)c1 [2H, HLQ2H] | 2H showed a similar inhibition on Sse1 (Fig. S1a), the major Hsp110 from S. cerevisiae | 5.02 ± 0.35 | A similar inhibition of holdase activity was observed for this mutant when treated with 2H (Fig. S6a) | – |
| Nc1ncnc2c1ncn2[C@@H]1O[C@H](COP(=O)(O)OP(=O)(O)OP(=O)(O)O)[C@@H](O)[C@H]1O [ATP] | – | – | – | suggesting that the pre-bound ATP-FAM was slowly replaced by the regular ATP |
